One experiment deals with T1, CYP51Tc (Trypanosoma cruzi, UniProt Q7Z1V1).
T1 construct: His6 (C); made in house; host or cells: Escherichia coli HMS174(DE3)
Nature of the experiment: biochemical. It is filed as binding.

For a further experiment, the target named is T2, CYP51Tb (Trypanosoma brucei brucei, UniProt Q385E8, L2A).
T2 construct: His8 (C); made in house; host or cells: E. coli HMS174(DE3) co-transformed with pGro7 (GroES/GroEL)
In words: biochemical. The note with it: spectral titration, room temperature, pH 7.5. It is filed as binding.

The subject of experiment [1] is T. cruzi Y strain trypomastigotes. In words: T. cruzi assay: infection of J774 mouse macrophages, long-term treatment and cure. The settings on record: 10 µM, infected J774 macrophages, treatment up to 27 days then 13–15 days without inhibitor. It counts as cell-based, Trypanosoma cruzi. As to the method: Irradiated (1000 rads) J774 mouse macrophages were plated in 12-well tissue culture plates 24 h prior to infection with 10^5 T. cruzi Y strain trypomastigotes for 2 h at 37°C. […] Untreated controls, controls treated with the inhibitor K11777 (10 µM),[31], and uninfected macrophage controls were also included. All cultures were in triplicate and medium was replaced every 48 h. Treatment with CYP51 inhibitors continued for up to 27 days. Subsequently, treated cultures were maintained without inhibitor for an additional 13–15 days to confirm inhibitor effectiveness and cure of infected cells. Cultures were monitored daily by contrast phase microscopy to determine presence of T. cruzi infected cells and free infectious trypomastigotes (Table 2).

For another experiment, the system named is T. brucei. Nature of the experiment: T. brucei assay, viability by ATP-bioluminescence (CellTiter-Glo). The settings on record: highest tested concentration 10 µM, 48 h. It is filed as cell-based, Trypanosoma brucei. As to the method:
Trypanosomes were grown in complete HMI-9 medium containing 10% FBS, 10% Serum Plus medium (Sigma Inc. St. Louis Mo. USA) and 1× penicillin/streptomycin. Trypanosomes were diluted to 1.0×10^5/ml in complete HMI-9 medium. Diluted trypanosomes were aliquoted in Greiner sterile 96-well flat white opaque culture plates using a WellMate cell dispenser (Matrix Tech., Hudson, NH, USA). Compounds 8 and 10 were serially diluted in Me2SO. Trypanosomes were incubated with the compounds for 48 h at 37°C with 5% CO2 before monitoring viability. Trypanosomes were then lysed in the wells by adding 50 µl of CellTiter-GloTM (Promega Inc., Madison, WI, USA). Lysed trypanosomes were placed on an orbital shaker at room temperature for 2 min. The resulting ATP-bioluminescence of the trypanosomes in the 96-well plates was measured at room temperature using an Analyst HT plate reader (Molecular Devices, Sunnyvale, CA, USA).

Experiment [2] has as its system T. cruzi intracellular amastigotes. In words: IC50: T. cruzi intracellular amastigotes in J774 macrophages, parasites/cell. It is filed as cell-based, Trypanosoma cruzi. The note with it: 52 h; for mean number of parasites/cell: untreated 3.57±0.5 P/cell. The procedure: To determine IC50, mouse J774 macrophages were irradiated (1000 rads) to deter growth and plated onto 12-well tissue culture plates. Cells were infected with 10^5 tissue culture trypomastigotes of the Y strain of T. cruzi for 2 h at 37°C, as described above. […] All treatments were performed in triplicate to ensure statistical validity. Cultures were then fixed in 4% paraformaldehyde in PBS for 2 h at room temperature and stained with DAPI (10 nM) in PBS. One hundred cells and their intracellular parasites were quantified as previously described to estimate the mean number of parasites/cell. Mean P/cell data were plotted against compound concentration to estimate the IC50.

The mark [3] stands for this setting: spectral titration, room temperature, pH 7.5, read-out: KD, μM CYP51Tc.

Read-outs that look alike come from different tables or passages of the source.

T1 sequence (Q7Z1V1 21-481, looked up, natural form): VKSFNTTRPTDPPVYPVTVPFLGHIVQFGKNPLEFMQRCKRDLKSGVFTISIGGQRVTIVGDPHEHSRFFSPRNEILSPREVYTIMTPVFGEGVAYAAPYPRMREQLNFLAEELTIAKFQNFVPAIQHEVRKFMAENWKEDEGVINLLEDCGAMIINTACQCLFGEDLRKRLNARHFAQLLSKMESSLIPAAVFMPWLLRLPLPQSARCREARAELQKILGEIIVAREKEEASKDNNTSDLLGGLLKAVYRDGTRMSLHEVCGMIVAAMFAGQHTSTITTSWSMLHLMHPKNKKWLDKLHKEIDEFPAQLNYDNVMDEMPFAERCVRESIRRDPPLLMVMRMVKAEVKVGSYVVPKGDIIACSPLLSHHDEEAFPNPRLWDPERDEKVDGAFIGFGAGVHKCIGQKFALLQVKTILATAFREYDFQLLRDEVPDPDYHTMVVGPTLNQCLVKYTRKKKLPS
T2 sequence (Q385E8 whole entry L2A): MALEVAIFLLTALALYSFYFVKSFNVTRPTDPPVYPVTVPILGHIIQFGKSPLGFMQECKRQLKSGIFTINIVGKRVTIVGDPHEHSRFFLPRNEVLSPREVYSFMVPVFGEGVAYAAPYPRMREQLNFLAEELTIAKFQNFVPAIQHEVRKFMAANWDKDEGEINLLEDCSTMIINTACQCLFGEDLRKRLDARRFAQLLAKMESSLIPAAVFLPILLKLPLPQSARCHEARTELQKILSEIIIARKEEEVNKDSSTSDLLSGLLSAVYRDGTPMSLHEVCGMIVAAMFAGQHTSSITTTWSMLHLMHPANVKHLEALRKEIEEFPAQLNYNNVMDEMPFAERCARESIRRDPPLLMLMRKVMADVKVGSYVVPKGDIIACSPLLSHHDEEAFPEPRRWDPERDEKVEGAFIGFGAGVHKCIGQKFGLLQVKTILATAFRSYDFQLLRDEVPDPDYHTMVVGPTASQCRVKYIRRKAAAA

For the compound `Cn1c(=O)c2c(ncn2CC(=O)Nc2ccncc2)n(C)c1=O` [Compound 7], the figures for the equilibrium dissociation constant (Kd) at CYP51Tc (setting [3]) and at CYP51Tb were 20.7 ± 0.8 µM and > 100 µM, respectively.

At CYP51Tc (KD (affinity toward CYP51Tc), spectral assays), `Cc1ccc(S(=O)(=O)NCCCOC(=O)Nc2ccncc2)cc1` [Compound 8, 3-{[(4-methylphenyl)sulfonyl]amino}propylpyridin-4-ylcarbamate] registered a dissociation constant (Kd) of 0.16 µM. Further, binding at CYP51Tc (KD, μM CYP51Tc, spectral titration, room temperature, pH 7.5) was characterised by a dissociation constant (Kd) of 0.16 ± 0.03 µM. Besides, the “KD, μM CYP51Tb” value at CYP51Tb is “no binding”. In experiment [1], this compound gave a Host cell survival of 5 days and a T. cruzi development of 5 days. Also, the “inhibitory effects against cultured T. brucei” value in the experiment on T. brucei is reported as “neither compound 8 nor 10 had any inhibitory effects”. Besides, the “mean number of parasites/cell” value in experiment [2] (10 µM) came out at 1.22±0.1 P/cell.

Take `CSCC[C@H](NC(=O)[C@H]1CC[C@@H](C)CC1)C(=O)Nc1ccncc1` [Compound 9, cis-4-methyl-N-[(1S)-3-(methylsulfanyl)-1-(pyridin-4-ylcarbamoyl)propyl]cyclohexanecarboxamide]: the Kd on CYP51Tb came to 6.5 ± 0.6 µM.

On to `CC1CCC(C(=O)NC(Cc2c[nH]c3ccccc23)C(=O)Nc2ccncc2)CC1` (centres unmarked) [Compound 10], for which, on CYP51Tb, the “KD, μM CYP51Tb” value is reported as “no binding”. In experiment [1], this compound registered a Host cell survival of 40 days. Moreover, the T. cruzi development entry in experiment [1] is on record as “No”; in experiment [1] (listed as compound 10), “No parasites survived”. For the same compound, the “inhibitory effects against cultured T. brucei” value in the experiment on T. brucei is “neither compound 8 nor 10 had any inhibitory effects”; with T. brucei (listed as compound 10), “inactive”. Further, the “mean number of parasites/cell” value in experiment [2] (10 µM) was found to be 0.25±0.01 P/cell. Further, the inhibition at 10 µM in experiment [2] (Trypanosoma cruzi, 10 µM, read-out: growth inhibition) worked out at 100%. Further, the IC50 in experiment [2] (Trypanosoma cruzi, Y strain, read-out: IC50 for T. cruzi intracellular growth inhibition) is ~1 nM.

For the compound `CCC(C(=O)Nc1ccncc1)c1ccccc1` (stereo not drawn) [EBPA, α-ethyl-N-4-pyridinyl-benzeneacetamide, reference compound], the equilibrium dissociation constant (Kd) on CYP51Tc (setting [3]) came out at 0.48 ± 0.08 µM.
